# System: AMPK
# Test: AMPK enzyme activity assay (Delfia technology, AMARA peptide substrate)
# Type: biochemical
# Details: compound at 30 μM vs AMP at 200 μM
# Procedure: The following biological test allows the determination of the efficacy of compounds of formula (1) onto AMPK protein.
# AMPK enzyme activities were assayed by using a Delfia technology. AMPK enzyme activities were carried out in microtiter plates in the presence of a synthetic peptide substrate (AMARAASAAALARRR, the “AMARA” peptide) and activators in serial dilutions. Reactions were initiated by the addition of AMPK. Enzyme activity was assayed by using an anti-phosphoserine antibody to measure the quantity of phosphate incorporated into the AMARAA.
# No: Number of the molecule
# Activity: Ratio between the % of control (basal activity) of compound of formula (1) at 30 μM and the % of control (basal activity) of AMP (natural substrate) at 200 μM.
row,SMILES,Activity: Ratio between the % of control (basal activity) of compound of formula (1) at 30 μM and the % of control (basal activity) of AMP (natural substrate) at 200 μM
1,"CC1(c2cccc(S(C)(=O)=O)c2)C(=O)Nc2sc(Cl)c(-c3ccc(F)cc3)c2C1=O (centres unmarked) [No 64, 2-chloro-3-(4-fluorophenyl)-5-methyl-5-(3-methyl-sulfonylphenyl)-7H-thieno[2,3-b]pyridine-4,6-dione]",C (C≧75%)
2,"Cc1sc2c(c1-c1ccccc1)C(=O)C(F)(c1ccccc1)C(=O)N2 (centres unmarked) [No 70, 5-fluoro-2-methyl-3,5-diphenyl-7H-thieno[2,3-b]pyridine-4,6-dione]",C (C≧75%)
3,"O=C1Nc2sc(Cl)c(-c3cccnc3)c2C(=O)C1(F)c1ccccc1 (centres unmarked) [No 71, 2-chloro-5-fluoro-5-phenyl-3-(3-pyridyl)-7H-thieno[2,3-b]pyridine-4,6-dione]",B (50%≦B<75%)
4,"O=C1Nc2sc(Cl)c(-c3ccc(O)cc3)c2C(=O)C1(F)c1ccccc1 (centres unmarked) [No 72, 2-chloro-5-fluoro-3-(4-hydroxyphenyl)-5-phenyl-7H-thieno[2,3-b]pyridine-4,6-dione]",C (C≧75%)
5,"O=C1Nc2sc(Cl)c(-c3ccccc3F)c2C(=O)C1(F)c1ccccc1 (centres unmarked) [No 73, 2-chloro-5-fluoro-3-(2-fluorophenyl)-5-phenyl-7H-thieno[2,3-b]pyridine-4,6-dione]",C (C≧75%)
6,"COc1ccc(-c2c(Cl)sc3c2C(=O)C(F)(c2ccccc2)C(=O)N3)c(F)c1 (centres unmarked) [No 74, 2-chloro-5-fluoro-3-(2-fluoro-4-methoxy-phenyl)-5-phenyl-7H-thieno[2,3-b]pyridine-4,6-dione]",C (C≧75%)
7,"O=C1Nc2sc(Cl)c(-c3ccc(O)c(F)c3)c2C(=O)C1(F)c1ccccc1 (centres unmarked) [No 77, 2-chloro-5-fluoro-3-(3-fluoro-4-hydroxy-phenyl)-5-phenyl-7H-thieno[2,3-b]pyridine-4,6-dione]",B (50%≦B<75%)
8,"COc1ccccc1C1(F)C(=O)Nc2sc(C)c(-c3ccccc3)c2C1=O (centres unmarked) [No 78, 5-fluoro-5-(2-methoxyphenyl)-2-methyl-3-phenyl-7H-thieno[2,3-b]pyridine-4,6-dione]",A (0%<A<50%)
9,"Cc1cccc(-c2c(Cl)sc3c2C(=O)C(F)(c2ccccc2)C(=O)N3)c1 (centres unmarked) [No 79, 2-chloro-5-fluoro-3-(m-tolyl)-5-phenyl-7H-thieno[2,3-b]pyridine-4,6-dione]",C (C≧75%)
10,"Cc1ccc(-c2c(Cl)sc3c2C(=O)C(F)(c2ccccc2)C(=O)N3)cc1 (centres unmarked) [No 80, 2-chloro-5-fluoro-5-phenyl-3-(p-tolyl)-7H-thieno[2,3-b]pyridine-4,6-dione]",C (C≧75%)
11,"COc1ccc(-c2c(Cl)sc3c2C(=O)C(F)(c2ccccc2)C(=O)N3)cc1 (centres unmarked) [No 81, 2-chloro-5-fluoro-3-(4-methoxyphenyl)-5-phenyl-7H-thieno[2,3-b]pyridine-4,6-dione]",B (50%≦B<75%)
12,"CS(=O)(=O)c1cccc(C2(F)C(=O)Nc3sc(Cl)c(-c4ccccc4)c3C2=O)c1 (centres unmarked) [No 82, 2-chloro-5-fluoro-5-(3-methylsulfonylphenyl)-3-phenyl-7H-thieno[2,3-b]pyridine-4,6-dione]",A (0%<A<50%)
13,"Cc1cccc(C2(C)C(=O)Nc3sc(Cl)c(-c4ccc(F)cc4)c3C2=O)c1 (centres unmarked) [No 83, 2-chloro-3-(4-fluorophenyl)-5-methyl-5-(m-tolyl)-7H-thieno[2,3-b]pyridine-4,6-dione]",A (0%<A<50%)
14,"COc1ccc(-c2c(Cl)sc3c2C(=O)C(C)(c2cccc(F)c2)C(=O)N3)cc1 (centres unmarked) [No 85, 2-chloro-5-(3-fluorophenyl)-3-(4-methoxyphenyl)-5-methyl-7H-thieno[2,3-b]pyridine-4,6-dione]",A (0%<A<50%)
15,"COc1ccc(-c2c(Cl)sc3c2C(=O)C(C)(c2ccc(OC)cc2)C(=O)N3)cc1 (centres unmarked) [No 86, 2-chloro-3,5-bis(4-methoxyphenyl)-5-methyl-7H-thieno[2,3-b]pyridine-4,6-dione]",A (0%<A<50%)

# More lines, now with the values ahead:
row,Activity: Ratio between the % of control (basal activity) of compound of formula (1) at 30 μM and the % of control (basal activity) of AMP (natural substrate) at 200 μM,SMILES
1,C (C≧75%),"COc1ccccc1-c1c(Cl)sc2c1C(=O)C(C)(c1ccc(C)cc1)C(=O)N2 (centres unmarked) [No 65, 2-chloro-3-(2-methoxyphenyl)-5-methyl-5-(p-tolyl)-7H-thieno[2,3-b]pyridine-4,6-dione]"
2,C (C≧75%),"COc1ccccc1-c1c(Cl)sc2c1C(=O)C(C)(c1cccc(F)c1)C(=O)N2 (centres unmarked) [No 66, 2-chloro-5-(3-fluorophenyl)-3-(2-methoxyphenyl)-5-methyl-7H-thieno[2,3-b]pyridine-4,6-dione]"
3,C (C≧75%),"COc1ccc(C2(C)C(=O)Nc3sc(Cl)c(-c4ccccc4OC)c3C2=O)cc1 (centres unmarked) [No 67, 2-chloro-3-(2-methoxyphenyl)-5-(4-methoxyphenyl)-5-methyl-7H-thieno[2,3-b]pyridine-4,6-dione]"
4,C (C≧75%),"COc1cccc(C2(C)C(=O)Nc3sc(Cl)c(-c4ccccc4OC)c3C2=O)c1 (centres unmarked) [No 68, 2-chloro-3-(2-methoxyphenyl)-5-(3-methoxyphenyl)-5-methyl-7H-thieno[2,3-b]pyridine-4,6-dione]"
5,C (C≧75%),"COc1ccccc1-c1c(Cl)sc2c1C(=O)C(C)(c1ccccc1F)C(=O)N2 (centres unmarked) [No 69, 2-chloro-5-(2-fluorophenyl)-3-(2-methoxyphenyl)-5-methyl-7H-thieno[2,3-b]pyridine-4,6-dione]"
6,A (0%<A<50%),"Cc1ccc(C2(C)C(=O)Nc3sc(Cl)c(-c4ccccc4F)c3C2=O)cc1 (centres unmarked) [No 75, 2-chloro-3-(2-fluorophenyl)-5-methyl-5-(p-tolyl)-7H-thieno[2,3-b]pyridine-4,6-dione]"
7,A (0%<A<50%),"COc1cccc(C2(C)C(=O)Nc3sc(Cl)c(-c4ccccc4F)c3C2=O)c1 (centres unmarked) [No 76, 2-chloro-3-(2-fluorophenyl)-5-(3-methoxyphenyl)-5-methyl-7H-thieno[2,3-b]pyridine-4,6-dione]"
8,B (50%≦B<75%),"COc1ccc(C2(C)C(=O)Nc3sc(Cl)c(-c4ccccc4F)c3C2=O)cc1 (centres unmarked) [No 84, 2-chloro-3-(2-fluorophenyl)-5-(4-methoxyphenyl)-5-methyl-7H-thieno[2,3-b]pyridine-4,6-dione]"

# From patent US9365584B2, “Thieno [2,3-B] pyridinedione activators of AMPK and therapeutic uses thereof” (Poxel, priority 2009, dated 2016)
